Laboratory results from patent US11339193B2, “CDP protein secretion inhibitors” (KEZAR LIFE SCIENCES, priority 2018, dated 2022).
Peptide text beside a SMILES is read from it.

Experiments:
Assay type in all cases: cell-based
HER3ss-Gluc = assay: HER3ss assay; settings: HEK-293T T-rex cells, transient transfection, doxycycline, 24 h; read-out: HER3 ss IC50
Outline: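 HEK-293T T-REx cells were transiently transfected with HER3 signal sequence (plus four mature-domain residues) fused upstream of mature Gaussia luciferase. Cells were induced with doxycycline (1 μg/ml) and exposed to increasing compound concentrations for 24 h, then secreted luciferase in the conditioned medium was read by luminescence.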

[1] = system: VCAMss+10aa/Gaussia Luciferase; assay: VCAM-ss-Gluc assay (constitutively active or Dox induced); settings: Flp-In 293 T-REx cells, 24 hours
Outline: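 Stable cell lines secreting a VCAM signal sequence+10aa/Gaussia luciferase fusion, expressed either constitutively or under T-REx doxycycline control. Cells plated the day before; compound dilutions in DMSO/media (with doxycycline for the induced line) added and incubated at 37° C, 5% CO2.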

[2] = system: BT474 breast tumor cell line; assay: BT474 assay (Alamar blue); settings: Homo sapiens, BT-474, 72 h
Outline: (§1)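 For both lines, 5000 cells/well were exposed to compound or a 1% DMSO-medium control for 72 h unless otherwise specified. Signal was normalized to the DMSO control.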

[3] = system: TNFα-FL/Gaussia Luciferase; assay: Dox induced TNFα-FL-Gluc assay; settings: Flp-In 293 T-REx cells, doxycycline, 24 hours; read-out: TNFa FL Gluc IC50
Outline: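 Stable Flp-In 293 T-REx line expressing full-length TNFα (aa 1-233) fused at its C-terminus to Gaussia luciferase under doxycycline-inducible control. Cells plated the day before, then given compound dilutions in DMSO/media containing doxycycline and incubated at 37 °C, 5% CO2.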

[4] = system: U266B1 multiple myeloma cell line; assay: U266 assay (cell viability, Celltiter-Glo); settings: Homo sapiens, U-266; 48 hours, cell viability
Protocol: Cells were plated in 384-well tissue culture plates and treated with compound dilutions in DMSO/media. Plates were incubated at 37° C., 5% CO2 for 48 hours. After 48 hours, Celltiter-Glo@ (Promega) was added to each well and luciferase signal was quantified using Tecan Infinite M1000 Pro for cell viability determination.

[5] = system: Prl-ss+10aa/Gaussia Luciferase; assay: Prl-ss-Gluc assay (constitutively active or 24 hr Dox inducible); settings: Flp-In 293 T-REx cells, 24 hours; read-out: Prl IC50
Outline: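 Stable Flp-In 293 T-REx lines express Prl signal sequence+10aa fused to Gaussia luciferase, either constitutively (pcDNA5/FRT) or under the T-REx promoter (pcDNA5/FRT/TO). Cells plated the day before; compounds in DMSO/media (with doxycycline for the inducible line, 24 h) incubated at 37 °C, 5% CO2.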

[6] = system: NCI-H929 multiple myeloma cell line; assay: H929 assay (cell viability, Celltiter-Glo); settings: Homo sapiens, NCI-H929; 48 hours, cell viability; read-out: H929 EC50
Outline: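 Cells plated in RPMI 1640 with 10% FBS and 2 mM glutamine, treated with compound dilutions in DMSO/media. Incubation 48 h at 37° C, 5% CO2. Viability from luciferase luminescence signal.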

[7] = system: JJN3 plasma cell leukemia cell line; assay: JJN-3 assay (Alamar blue); settings: Homo sapiens, 72 h
Outline: as §1

[8] = system: PD1-ss+10aa/Gaussia Luciferase; assay: Dox induced PD1-ss-Gluc assay; settings: Flp-In 293 T-REx cells, doxycycline, 24 hours; read-out: PD1ss Gluc IC50
Outline: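 Stable Flp-In 293 T-REx line expressing doxycycline-inducible Gaussia luciferase fused to the PD1 signal sequence plus 10 amino acids. Cells plated the day before, then exposed to compound dilutions in DMSO/media containing doxycycline at 37 °C, 5% CO2.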

IC50 (HER3ss-Gluc): 216 nM
IC50 [1]: 240 nM
EC50 [2]: 4190 nM
IC50 [3]: 1360 nM
EC50 [4]: 8880 nM
IC50 [5]: 6030 nM
EC50 [6]: 4250 nM
EC50 [7]: 1480 nM
IC50 [8]: 385 nM
Structure (SMILES): Cc1cccc(Cn2cc(C[C@H]3C(=O)N[C@@H](CC(C)C)C(=O)N(C)[C@@H](C)C(=O)O[C@H](CCC#N)C(=O)N[C@@H](CC(C)C)C(=O)N(C)[C@@H](CC(C)C)C(=O)N[C@@H](CC(C)C)C(=O)N3C)c3ccccc32)n1 [C-33] (HELM PEPTIDE1{L.[meA].[N#CCC[C@@H](O[*:1])C(=O)[*:2]].L.[meL].L.[Cc1cccc(Cn2cc(C[C@@H](C(=O)[*:2])N(C)[*:1])c3ccccc32)n1]}$PEPTIDE1,PEPTIDE1,1:R1-7:R2$$$V2.0)
